The results in this text go back to patent US20260365625A1, “DEUTERIUM ENRICHED PHENYL DERIVATIVES FOR TREATING MITOCHONDRIARELATED DISORDERS OR CONDITIONS” (Rivus Pharmaceuticals, Inc., priority 2022, published 2026).

This test concerns HepG2 (hepatocellular carcinoma cells). In words: Oxygen consumption rate (OCR) in HepG2 cells, Seahorse XFe96 Extracellular Flux Analyzer. The format is cell-based. The protocol:
HepG2 (hepatocellular carcinoma cells) were utilized in a Seahorse XFe96 Extracellular Flux Analyzer to analyze Compound (A)'s and the phenolic metabolite of the compound of formula (I)'s (“DNP”) effect on oxygen consumption rate (OCR).
30,000 HepG2 cells in MEM Alpha growth medium+10% Fetal Bovine Serum were seeded in XFe 96-well cell culture plate and incubated overnight at 37 °C with 5% CO2. The following day, cells were transferred to assay media (DMEM basal assay medium containing 10 mM Glucose 2 mM Glutamine, 1 mM Sodium Pyruvate, adjusted to pH7.4 with IN NaOH) and OCR was measured in a Seahorse XFe96 Extracellular Flux Analyzer according to the manufacturer's instructions. The effect of novel compounds on OCR was assayed in quadruplicates, at three different concentrations and in three separate experiments. The concentration that reaches half their maximum effect (EC50) and maximum OCR (Emax) increase as compared to DNP (100%) over untreated cells (0%) was calculated as an average between the three independent experiments. For data analysis GraphPad Prism was utilized.

As for `O=[N+]([O-])c1ccc(O)c([N+](=O)[O-])c1` [DNP], the “Emax (maximum OCR increase as compared to DNP (100%) over untreated cells (0%))” value (OCR values normalized to 100 μM DNP (Emax=100%), average of three independent experiments) is 100%. For the same compound, under “result in words”, the “effect on oxygen consumption rate (OCR)” value is “increased oxygen consumption rate (OCR)”. The EC50 (three concentrations in quadruplicates, average of three independent experiments, read-out: EC50 (concentration that reaches half their maximum effect on OCR)) is 22 µM.
